Measured values as given in US20230172206A1 (BASF SE, priority 2020, published 2023).

How the values were obtained:
[1] = tested on: Phakopsora pachyrhizi (F129L); test: Protective control of soybean rust on soybeans (PHAKPA P6); assay type: in vivo; details: for % PHAKPA (F129L) Disease level P6 at 4 ppm: protective P6, 4 ppm; for % PHAKPA (F129L) Disease level P6 at 16 ppm: protective P6, 16 ppm
[2] = tested on: Phakopsora pachyrhizi (F129L); test: Protective control of soybean rust on soybeans (PHAKPA P2); assay type: in vivo; details: for % PHAKPA (F129L) Disease level P2 at 4 ppm: protective P2, 4 ppm; for % PHAKPA (F129L) Disease level P2 at 16 ppm: protective P2, 16 ppm

Row | SMILES | % PHAKPA (F129L) Disease level P6 at 4 ppm ([1]; F129L isolate) [%] | % PHAKPA (F129L) Disease level P6 at 16 ppm ([1]; F129L isolate) [%] | % PHAKPA (F129L) Disease level P2 at 4 ppm ([2]; F129L isolate) [%] | % PHAKPA (F129L) Disease level P2 at 16 ppm ([2]; F129L isolate) [%] | % PHAKPA (F129L) Disease level P6 at 4 ppm ([1]; soybean rust F129L isolate) [%] | % PHAKPA (F129L) Disease level P6 at 16 ppm ([1]; soybean rust F129L isolate) [%] | % PHAKPA (F129L) Disease level P2 at 4 ppm ([2]; soybean rust F129L isolate) [%] | % PHAKPA (F129L) Disease level P2 at 16 ppm ([2]; soybean rust F129L isolate) [%]
1 | C=C(C)c1cccc(/C(=N\OC)C(=O)NC)c1CO/N=C(\C)c1ccccc1 [compound 399] | 90 | 15 | 67 | 8 |  |  |  | 
2 | CO/N=C(/C(=O)OC)c1cccc(C)c1CO/N=C(\C)c1ccc(Oc2ccc(Cl)cc2)cc1C(F)(F)F [compound 335] |  |  |  |  | 80 | 25 | 77 | 53
3 | CNC(=O)/C(=N/OC)c1cccc(C)c1CO/N=C(\C)c1ccccc1CC(F)(F)F [compound 223] |  |  |  |  | 28 | 0 | 4 | 0
4 | CO/N=C(/C(=O)OC)c1cccc(C)c1CO/N=C(\C)c1ccc(OC)cc1C(F)(F)F [compound 328] |  |  |  |  | 23 | 5 | 33 | 8
5 | CNC(=O)/C(=N/OC)c1cccc(C)c1CO/N=C(\C)c1ccccc1C#N [compound 225] |  |  |  |  | 100 | 97 | 83 | 27
6 | CNC(=O)/C(=N/OC)c1cccc(C)c1CO/N=C(/c1ccccc1)C(F)(F)F [compound 458] | 83 | 50 | 93 | 57 |  |  |  | 
7 | CNC(=O)/C(=N/OC)c1cccc(C)c1CO/N=C(\C)c1ccccc1C1(C)CC1 [compound 296] |  |  |  |  | 100 | 83 | 100 | 40
8 | CNC(=O)/C(=N/OC)c1cccc(C)c1CO/N=C(\C)c1cc(F)c(F)cc1C(F)(F)F [compound 410] | 35 | 1 | 9 | 0 |  |  |  | 
9 | CNC(=O)/C(=N/OC)c1cccc(C)c1CO/N=C(\CC(F)(F)F)c1ccccc1 [compound 380] | 60 | 12 | 53 | 5 |  |  |  | 
10 | CO/N=C(/C(=O)OC)c1cccc(C)c1CO/N=C(\C)c1cc(F)c(F)cc1C(F)(F)F [compound 409] | 83 | 73 | 77 | 40 |  |  |  | 
11 | CO/N=C(/C(=O)OC)c1cccc(C)c1CO/N=C(\C)c1ccc(Br)cc1C(F)(F)F [compound 257] |  |  |  |  | 100 | 57 | 93 | 35
12 | CO/N=C(/C(=O)OC)c1cccc(C)c1CO/N=C(\C)c1ccc(OC(F)(F)F)cc1F [compound 269] |  |  |  |  | 18 | 0 | 5 | 0
13 | CNC(=O)/C(=N/OC)c1cccc(C)c1CO/N=C(\C)c1cc(Br)cc(F)c1F [compound 241] |  |  |  |  | 33 | 12 | 3 | 0
14 | CNC(=O)/C(=N/OC)c1cccc(C)c1CO/N=C(\C)c1cccc(N2CC(F)(F)C2)c1 [compound 282] |  |  |  |  |  | 18 |  | 15
15 | CO/C=C(/C(=O)OC)c1cccc(C)c1CO/N=C(\C)c1ccccc1CC(F)(F)F [compound 437] | 8 | 0 | 2 | 0 |  |  |  | 
16 | CO/C=C(/C(=O)OC)c1cccc(C)c1CO/N=C(\C)c1ccc(Br)cc1C(F)(F)F [compound 445] | 30 | 2 | 15 | 1 |  |  |  | 
17 | CC/C(=N\OCc1c(C)cccc1/C(=N\OC)C(=O)NC)c1ccccc1 [compound 294] |  |  |  |  | 2 | 0 | 1 | 1
